The record followed here is US9409884B2 (Rigel Pharmaceuticals, Inc., priority 2012, dated 2016).

The target in the first experiment is AMPK. The experiment can be described thus: AMPK activation, enzyme-linked immunosorbent assay. The class given is biochemical. The conditions noted are these: Table 8, compounds of Table 1. The method, then: Compounds of Table 1 were assayed for their ability to activate AMPK using an enzyme-linked immunosorbent assay.
Compounds of Table 2 were assayed for their ability to activate AMPK using an enzyme-linked immunosorbent assay.
Compounds of Table 3 were assayed for their ability to activate AMPK using an enzyme-linked immunosorbent assay.
Compounds of Table 4 were assayed for their ability to activate AMPK using an enzyme-linked immunosorbent assay.
Compounds of Table 5 were assayed for their ability to activate AMPK using an enzyme-linked immunosorbent assay.
Compounds of Table 6 were assayed for their ability to activate AMPK using an enzyme-linked immunosorbent assay.
Compounds of Table 7 were assayed for their ability to activate AMPK using an enzyme-linked immunosorbent assay.
In general, EC50 refers to the concentration needed to bring the measured effect to its halfway point. Read a high EC50 as a need for much substance. Compound `N#Cc1ccc(CN2CCC(NC(=O)c3cc4cc(OC5CCN(Cc6ccc(C(F)(F)F)cc6)CC5)ccc4o3)CC2)cc1` [Compound 1-174, N-(1-(4-cyanobenzyl)piperidin-4-yl)-5-(1-(4-(trifluoromethyl)benzyl)piperidin-4-yloxy)benzofuran-2-carboxamide] came in with an EC50 below 0.1 µM.
On the same count and under the same terms, the result for `N#Cc1ccc(CN2CCC(NC(=O)c3ccc(OC4CCN(c5ccc(C(F)(F)F)cc5)CC4)nc3)CC2)cc1` [Compound 1-35, N-(1-(4-cyanobenzyl)piperidin-4-yl)-6-(1-(4-(trifluoromethyl)phenyl)piperidin-4-yloxy) nicotinamide] reads 0.1 to 0.5 µM; that for `N#Cc1cccc(CN2CCC(NS(=O)(=O)c3ccc(OC4CCN(c5ccc(C(F)(F)F)cc5)CC4)nc3)CC2)c1` [Compound 1-57, N-(1-(3-cyanobenzyl)piperidin-4-yl)-6-(1-(4-(trifluoromethyl)phenyl)piperidin-4-yloxy)pyridine-3-sulfonamide], 0.5 to 1 µM.
In turn, `O=C(NC1CCN(Cc2ccccc2)CC1)c1cc2cc(OC3CCN(c4ccc(C(F)(F)F)cc4)CC3)ccc2o1` [Compound 1-75, N-(1-benzylpiperidin-4-yl)-5-(1-(4-(trifluoromethyl)phenyl)piperidin-4-yloxy)benzofuran-2-carboxamide] displayed an EC50 below 0.1 µM.
Same read-out and setting: the result for `O=C(NC1CCN(Cc2ccccc2)CC1)c1cc2cc(OC3CCN(Cc4ccc(Cl)cc4)CC3)ccc2o1` [Compound 1-72, N-(1-benzylpiperidin-4-yl)-5-(1-(4-chlorobenzyl)piperidin-4-yloxy)benzofuran-2-carboxamide] reads 0.1 to 0.5 µM.

Still in this experiment, the particulars now being: Table 10, compounds of Table 3.
In turn, `N#Cc1ccc(CN2CCC(NC(=O)c3ccc(C(=O)N4CCN(c5ccc(Cl)cc5)CC4)cc3)CC2)cc1` [Compound 3-29, 4-(4-(4-chlorophenyl)piperazine-1-carbonyl)-N-(1-(4-cyanobenzyl)piperidin-4-yl)benzamide] yielded an EC50 of 10 to 100 µM.
The same measure, in the same setting: in the case of `N#Cc1ccc(CN2CCC(NC(=O)c3nc4ccc(OC5CCN(c6ccc(C(F)(F)F)cc6)CC5)cc4s3)CC2)cc1` [Compound 3-16, N-(1-(4-cyanobenzyl)piperidin-4-yl)-6-(1-(4-(trifluoromethyl)phenyl)piperidin-4-yloxy)benzo[d]thiazole-2-carboxamide] it was 0.1 to 1 µM.
The same measure, in the same setting: in the case of `N#Cc1ccc(CN2CCC(NC(=O)c3ccc(C(=O)N4CCN(Cc5ccc(Cl)cc5)CC4)cc3)CC2)cc1` [Compound 3-28, 4-(4-(4-chlorobenzyl)piperazine-1-carbonyl)-N-(1-(4-cyanobenzyl)piperidin-4-yl)benzamide] it was below 0.1 µM; in that of `O=C(NC1CCN(Cc2ccc(C(F)(F)F)cc2)CC1)c1ccc2c(c1)CN(Cc1ccc(F)cc1)CC2` [Compound 3-36, 2-(4-fluorobenzyl)-N-(1-(4-(trifluoromethyl)benzyl)piperidin-4-yl)-1,2,3,4-tetrahydroisoquinoline-7-carboxamide], 0.1 to 1 µM; in that of `O=C(NC1CCN(Cc2cccnc2)CC1)c1ccc2c(c1)CN(Cc1ccc(F)cc1)CC2` [Compound 3-35, 2-(4-fluorobenzyl)-N-(1-(pyridin-3-ylmethyl)piperidin-4-yl)-1,2,3,4-tetrahydroisoquinoline-7-carboxamide], 1 to 10 µM.

The experiment is the same for the next values; noted with them: Table 11, compounds of Table 4.
In the case of `CS(=O)(=O)c1ccc(CN2CCN(C(=O)c3ccc(C(=O)NC4CCN(Cc5ccc(C#N)cc5)CC4F)cn3)CC2)cc1` (stereo not drawn) [Compound 4-13, N-((3,4-trans)-1-(4-cyanobenzyl)-3-fluoropiperidin-4-yl)-6-(4-(4-(methylsulfonyl)benzyl)piperazine-1-carbonyl)nicotinamide], the EC50 lay within 1 to 5 µM.

Staying with this experiment, now noted: Table 12, compounds of Table 5.
As to `O=C(NC1CCN(Cc2ccccc2)CC1)c1cccc(OC2CCN(Cc3ccccc3)CC2)c1` [Compound 5-13, N-(1-benzylpiperidin-4-yl)-3-(1-benzylpiperidin-4-yloxy)benzamide], the concentration for a half-maximal effect (EC50) lay in the range of 20 to 50 µM.
Same read-out and setting: in the case of `O=C(NC1CCN(Cc2ccc(F)cc2)CC1)c1ccc(OC2CCN(c3ccc(C(F)(F)F)cc3)CC2)c(F)c1` [Compound 5-27, 3-fluoro-N-(1-(4-fluorobenzyl)piperidin-4-yl)-4-(1-(4-(trifluoromethyl)phenyl)piperidin-4-yloxy)benzamide] it was below 1 µM; in that of `CC(C)Oc1ccc(CN2CCC(Oc3cccc(C(=O)NC4CCN(Cc5ccc(C#N)cc5)CC4)c3)CC2)cc1` [Compound 5-121, N-(1-(4-cyanobenzyl)piperidin-4-yl)-3-(1-(4-isopropoxybenzyl)piperidin-4-yloxy)benzamide], below 1 µM; in that of `O=C(NC1CCN(Cc2ccccc2)CC1)c1ccc(OC2CCN(Cc3ccc(C(F)(F)F)cc3)CC2)c(Cl)c1` [Compound 5-56, N-(1-benzylpiperidin-4-yl)-3-chloro-4-(1-(4-(trifluoromethyl)benzyl)piperidin-4-yloxy)benzamide], below 1 µM.

The experiment is the same for the next values; noted with them: Table 13, compounds of Table 6.
Consider `N#Cc1ccc(CN2CCC(NC(=O)c3cc4cc(NC(=O)c5ccc(C#N)cc5)ccc4o3)CC2)cc1` [Compound 6-57], for which the EC50 lay within 0.1 to 1 µM.
Same read-out and setting: the result for `N#Cc1ccc(CN2CCC(NC(=O)c3cc4cc(C(=O)N5CCN(Cc6ccc(-n7cccn7)cc6)CC5)ccc4o3)CC2)cc1` [Compound 6-79, 5-(4-(4-(1H-pyrazol-1-yl)benzyl)piperazine-1-carbonyl)-N-(1-(4-cyanobenzyl)piperidin-4-yl)benzofuran-2-carboxamide] reads below 0.1 µM.
On the same count and under the same terms, in the case of `N#Cc1ccc(CN2CCC(NC(=O)c3cc4cc(NC(=O)Cc5ccc(C(F)(F)F)cc5)ccc4o3)CC2)cc1` [Compound 6-54, N-(1-(4-cyanobenzyl)piperidin-4-yl)-5-(2-(4-(trifluoromethyl)phenyl)acetamido)benzofuran-2-carboxamide] it was 0.1 to 1 µM; in that of `COc1ccc(CN2CCC(NC(=O)c3cc4cc(C(=O)N5CC[C@H](Oc6ccc(S(C)(=O)=O)cc6)[C@@H](F)C5)ccc4o3)CC2)cc1` [Compound 6-114, 5-((3,4-trans)-3-fluoro-4-(4-(methylsulfonyl)phenoxy)piperidine-1-carbonyl)-N-(1-(4-methoxybenzyl)piperidin-4-yl) benzofuran-2-carboxamide], below 0.1 µM.

The same experiment, now with this note: Table 14, compounds of Table 7.
As to `COc1ccc(C(=O)C2CCN(C(=O)c3ccc(C(=O)NC4CCN(Cc5ccc(F)c(C(F)(F)F)c5)C[C@H]4F)cn3)CC2)cc1` (stereo partly drawn) [Compound 7-45, N-((3,4-trans)-3-fluoro-1-(4-fluoro-3-(trifluoromethyl)benzyl)piperidin-4-yl)-6-(4-(4-methoxybenzoyl)piperidine-1-carbonyl)nicotinamide], the EC50 is below 1 µM.
The same measure, in the same setting: the result for `COCCN(C(=O)c1ccc(C(=O)N2CCC(C(=O)c3ccc(OC)cc3)CC2)nc1)C1CCN(Cc2ccc(C#N)cc2)CC1` [Compound 7-17, N-(1-(4-cyanobenzyl)piperidin-4-yl)-6-(4-(4-methoxybenzoyl)piperidine-1-carbonyl)-N-(2-methoxyethyl)nicotinamide] reads below 1 µM; that for `COc1ccc(C(=O)C2CCN(C(=O)c3ccc(C(=O)NC4CCN(Cc5ccc(C#N)cc5)C[C@@H]4C(F)(F)F)cn3)CC2)cc1` (stereo partly drawn) [Compound 7-101, N-((3,4-cis)-1-(4-cyanobenzyl)-3-(trifluoromethyl)piperidin-4-yl)-6-(4-(4-methoxybenzoyl)piperidine-1-carbonyl)nicotinamide], below 1 µM.
